The text below walks through data of PubChem BioAssay (NCI).

Molecules are shown by their SMILES.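 Cultured in 96-well plates, cells were exposed to test compound for 48 hours across five concentrations. The concentration for 50% growth inhibition is given as GI50. The concentration for full growth arrest is given as TGI.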

Test systems include A549 NSCLC; HCC-2998 colon; MDA-N; MOLT-4 leukemia; SK-MEL-5 melanoma; SNB-75 CNS; UACC-62 melanoma; NCI-H522 lung.
What all share (assay): growth of human tumour cells (NCI), 48 h

Regarding `O=C(/C(=C(/Br)I)c1ccccc1)c1ccccc1`, the TGI was above 100 µM in the test on A549 NSCLC; 30.1 µM in the test with HCC-2998 colon; 81.9 µM with MDA-N; 46.2 µM in the test on MOLT-4 leukemia; 41.8 µM with SK-MEL-5 melanoma; 71 µM in the test with SNB-75 CNS. The compound also came in with a TGI in the test on UACC-62 melanoma of 34.4 µM.
`CO[C@@H](C(=O)OC1C=CC2(CC1)C(=O)N(C)c1ccccc12)c1ccccc1` (some centres not stated): the TGI with A549 NSCLC, in the test on HCC-2998 colon, with MDA-N, with MOLT-4 leukemia, in the test with SK-MEL-5 melanoma and in the test on SNB-75 CNS was above 100 µM in each case. This compound also registered a TGI in the test on UACC-62 melanoma above 100 µM.
In the case of `CCCCCCCCCC[C@@H](O)[C@H]1CC[C@H]([C@H]2CC[C@H]([C@H](O)CCCCCCCCCC[C@@H]3CC(CC(C)=O)C(=O)O3)O2)O1` (some centres not stated), the TGI with A549 NSCLC is above 50 µM; in the test on HCC-2998 colon it was above 50 µM; in the test on MOLT-4 leukemia, above 50 µM; with NCI-H522 lung, above 50 µM; in the test with SK-MEL-5 melanoma it was above 21.5 µM; in the test with SNB-75 CNS, above 50 µM. The TGI in the test on UACC-62 melanoma was above 50 µM. Further, the GI50 is 1.97 µM in the test on SK-MEL-5 melanoma, 3.88 µM in the test with SNB-75 CNS and 14.9 µM in the test with UACC-62 melanoma.
Regarding `CC(=O)NC1C(OCc2ccccc2)OC(CO)C(O)C1OCC(=O)N[C@@H](C)C(=O)N[C@H](CCC(=O)NCCNCCNc1c2ccccc2nc2cccc([N+](=O)[O-])c12)C(N)=O` (some centres not stated), the TGI in the test on A549 NSCLC is above 100 µM; in the test on HCC-2998 colon, 22.5 µM; in the test on MDA-N, above 100 µM; in the test on NCI-H522 lung, 28.1 µM; in the test with SK-MEL-5 melanoma, 39.5 µM; in the test with SNB-75 CNS, above 100 µM. Also, the TGI in the test with UACC-62 melanoma is 35.2 µM.
Take `Cc1c(Cl)ccc2c(=O)c3cccc(CC(=O)O)c3oc12`: the TGI with A549 NSCLC, in the test with HCC-2998 colon, with MDA-N, with MOLT-4 leukemia, in the test on NCI-H522 lung and in the test with SK-MEL-5 melanoma was above 100 µM each time.
Turning to `Cc1c(/C=N\NC(=S)N2CCN(C(=S)N/N=C\c3c(C)n(C)n(-c4ccccc4)c3=O)CC2)c(=O)n(-c2ccccc2)n1C`, the TGI with A549 NSCLC was above 100 µM; in the test with HCC-2998 colon it was above 100 µM; with MOLT-4 leukemia, above 100 µM; in the test with NCI-H522 lung, above 100 µM; with SK-MEL-5 melanoma it was above 100 µM; in the test with SNB-75 CNS, 48.7 µM. This compound also came in with a TGI in the test on UACC-62 melanoma above 100 µM.
For the compound `O=c1c2c3ccccc3[nH]c2c2cccc3c2n1CCC3`, the TGI is above 100 µM in the test on A549 NSCLC; above 100 µM with HCC-2998 colon; above 100 µM with MDA-N; 86 µM in the test on MOLT-4 leukemia; 79.2 µM in the test with SK-MEL-5 melanoma; above 100 µM with SNB-75 CNS. The compound also displayed a TGI with UACC-62 melanoma above 100 µM.
With `Cc1[nH]c(/C=C2\C(=O)Nc3ccc(S(=O)(=O)Cc4c(Cl)cccc4Cl)cc32)c(C)c1C(=O)N1CCC[C@@H]1CN1CCCC1`, the GI50 in the test on HCC-2998 colon was 1.95 µM; in the test on NCI-H522 lung it was 19.7 µM; in the test on SK-MEL-5 melanoma, 2.58 µM. The TGI in the test on HCC-2998 colon was determined as 3.6 µM; in the test on NCI-H522 lung, 47.7 µM; with SK-MEL-5 melanoma, 15.8 µM.
Turning to `CC1C(c2cc(C(C)(C)C)c(O)c(C(C)(C)C)c2)c2cc3c(cc2OC1N1CCOCC1)OCO3` (configuration not stated), the TGI in the test with A549 NSCLC is 48 µM; with HCC-2998 colon, 33.4 µM; with MDA-N, above 100 µM; with MOLT-4 leukemia, above 100 µM; in the test on NCI-H522 lung it was above 100 µM; in the test with SK-MEL-5 melanoma it was 47.3 µM. Moreover, in the test with UACC-62 melanoma, the TGI is 72.9 µM.
For the compound `N#Cc1c(N)[nH]c(=S)c(C#N)c1-c1cccc(Cl)c1`, the TGI is above 100 µM in the test on A549 NSCLC; 35.6 µM in the test on HCC-2998 colon; 37.8 µM in the test on MDA-N; 57.8 µM in the test on MOLT-4 leukemia; 56.7 µM in the test on NCI-H522 lung; above 100 µM in the test with SK-MEL-5 melanoma. Besides, the TGI with UACC-62 melanoma is above 100 µM.
For `c1cc(-c2cnc(-c3ccc4c(c3)CCCO4)o2)ccn1`, the TGI with A549 NSCLC worked out at 51.5 µM; in the test with MDA-N, 27.8 µM; in the test with MOLT-4 leukemia, 22.2 µM; with NCI-H522 lung it was 23.4 µM; in the test on SK-MEL-5 melanoma it was 25.4 µM; with SNB-75 CNS, 25.2 µM. This compound gave a TGI with UACC-62 melanoma of 31.7 µM.
For the compound `O=C1CC2C=CC(O)C(C1)C2` (configuration not stated), the TGI in the test on HCC-2998 colon, in the test with MDA-N, in the test with MOLT-4 leukemia, in the test with NCI-H522 lung, in the test with SNB-75 CNS and with UACC-62 melanoma was above 100 µM in each case.
For `O=C(NS(=O)(=O)Nc1ccc(Cl)cc1)OCc1ccc(Cl)cc1Cl`, the TGI is 52.6 µM in the test on A549 NSCLC; 30.9 µM in the test on HCC-2998 colon; 50.3 µM with MDA-N; above 100 µM in the test on MOLT-4 leukemia; 39.1 µM in the test on SK-MEL-5 melanoma; above 100 µM with SNB-75 CNS. In the test on UACC-62 melanoma, the TGI amounted to 32.3 µM.
With `CCCCN(CC)c1nc(C)nc2c1c(C)c(C)n2-c1c(C)cc(C)cc1C`, the TGI in the test with A549 NSCLC came out at 30.2 µM; with MDA-N, 38.6 µM; with MOLT-4 leukemia, 30.1 µM; in the test with NCI-H522 lung it was 25.7 µM; in the test on SK-MEL-5 melanoma it was 17.6 µM; in the test on SNB-75 CNS, 27.4 µM.
On to `O=C1CC(C(O)CO)CC(=O)N1` (configuration not stated), for which the TGI in the test on A549 NSCLC, in the test with HCC-2998 colon, in the test with MDA-N, with NCI-H522 lung and in the test on SK-MEL-5 melanoma was above 100 µM each time.
Take `CC(C)=CCN1CC(C)C(=O)Nc2cc(Cl)ccc21` (configuration not stated): the TGI is above 100 µM with A549 NSCLC; 97.6 µM in the test with HCC-2998 colon; 54.6 µM in the test on MDA-N; above 100 µM in the test with MOLT-4 leukemia; 73.3 µM in the test with NCI-H522 lung; 26.5 µM in the test with SK-MEL-5 melanoma.
As for `CC(=O)OCC1OC(N2C(=O)/C(=C\c3ccc(Cl)cc3)C(N)=Nc3ccccc32)C(OC(C)=O)C(OC(C)=O)C1OC(C)=O` (configuration not stated), the TGI is above 100 µM in the test on A549 NSCLC; 36.5 µM with HCC-2998 colon; 37.9 µM with MDA-N; 27 µM in the test with MOLT-4 leukemia; 27.1 µM in the test with SK-MEL-5 melanoma; 74.4 µM with SNB-75 CNS. Besides, the TGI in the test on UACC-62 melanoma was above 100 µM.
Turning to `COc1ncc(C=C(C#N)C#N)c(OC)n1`, the TGI with A549 NSCLC is above 100 µM; in the test on MDA-N, 92.6 µM; with MOLT-4 leukemia, above 100 µM; in the test with NCI-H522 lung it was 45.4 µM; with SK-MEL-5 melanoma it was above 100 µM; in the test with SNB-75 CNS it was above 100 µM. Besides, the TGI in the test with UACC-62 melanoma is above 100 µM.
